Source: patent US20260217672A1, “BENZAMIDE COMPOUNDS FOR TREATMENT OF BACTERIAL INFECTIONS” (Hoffmann-La Roche Inc., priority 2022, published 2026)
Values after ≈ are worked out from the molar mass of the structure shown.

Assays:
[1] = system: Escherichia coli ATCC 25922; assay: Minimal Inhibitory Concentration (MIC) broth dilution assay; assay type: cell-based; settings: ATCC25922, 20 h, read-out: MIC Escherichia coli ATCC 25922
Protocol: (§1) The antibacterial activity of the compounds of the present invention was evaluated against the commonly used quality control strain Escherichia coli ATCC 25922 and the rifampin-resistant mutant strain Klebsiella pneumonia ATCC 43816. Both were originally derived from human clinical samples and are available from ATCC (American Type Culture Collection). The in vitro potency of compounds to inhibit Escherichia coli (ATCC 25922) and Klebsiella pneumonia (ATCC 43816) growth was assessed by the MIC (Minimal Inhibitory Concentration) broth dilution method. Specifically compound dilutions were prepared from 10 mM DMSO stock solutions as follows: i) serial 2-fold dilution in 20 μL DMSO were prepared in a master plate (Greiner, Cat No: 651201), ii) 180 μL sterile distilled water was added to each aliquot and iii) 10 μL diluted compounds were transferred into a new assay plate (Costar, 3599).
(§2) Vials of each test microorganisms were maintained frozen in the vapor phase of a liquid nitrogen freezer. Single-use frozen vials of the two strains Escherichia coli ATCC 25922 (KWIKSTIK, 0335K) and Klebsiella pneumonia ATCC 43816, with predetermined CFU/mL, were taken out from the freezer, thawed at room temperature, and diluted in Cation-Adjusted Mueller Hinton Broth (CAMHB) to achieve a final inoculum of 5×10^5 CFU/mL. 90 μL bacteria containing broth was dispensed to the assay plate containing the pre-dispensed compound dilutions and mixed by pipetting 5 times.
(§3) Then the assay plates were incubated for 20 hours at 35° C. in ambient air. Following incubation, the MIC ([…]), the lowest concentration of drug that inhibits visible growth of the microorganism was read with the help of a magnification mirror and recorded.

[2] = system: Klebsiella pneumonia ATCC 43816; assay: as above; assay type: cell-based; settings: Klebsiella pneumoniae, ATCC43816, 20 h, read-out: MIC Klebsiella pneumoniae ATCC43816
Protocol: as §1, §2, §3

Molecule `NCCCNCc1cccc(C(=O)Nc2ccc(S(=O)(=O)N3CCN(c4cc(C(F)(F)F)cc(Cl)n4)CC3)cc2)c1` [Example 024, 3-[(3-Aminopropylamino)methyl]-N-[4-[4-[6-chloro-4-(trifluoromethyl)-2-pyridyl]piperazin-1-yl]sulfonylphenyl]benzamide] has an MIC [1] of 0.48 µg/mL (≈ 0.785 µM) and an MIC [2] of 0.96 µg/mL (≈ 1.57 µM).

`N#CN=S(=O)(c1ccc(NC(=O)c2cccc(CCNCCCN)c2)cc1)N1CCN(c2cc(C(F)(F)F)cc(Cl)n2)CC1` (stereo not drawn) [Example 025, 3-[2-(3-Aminopropylamino)ethyl]-N-[4-[S-[4-[6-chloro-4-(trifluoromethyl)-2-pyridyl]piperazin-1-yl]-N-cyano-sulfonimidoyl]phenyl]benzamide] was tested, and the MIC [1] was 1.3 µg/mL (≈ 2 µM) and the MIC [2] was 5.1 µg/mL (≈ 7.86 µM).

Work on `CN=S(=O)(c1ccc(NC(=O)c2cccc(CNCCCN)c2)cc1)N1CCN(c2cc(C(F)(F)F)cc(Cl)n2)CC1` (stereo not drawn) [Example 026, 3-[(3-aminopropylamino)methyl]-N-[4-[S-[4-[6-chloro-4-(trifluoromethyl)-2-pyridyl]piperazin-1-yl]-N-methyl-sulfonimidoyl]phenyl]benzamide] yielded an MIC [1] of 3.9 µg/mL (≈ 6.25 µM) and an MIC [2] of 7.8 µg/mL (≈ 12.5 µM).

Work on `COc1cc(NC(=O)c2cccc(CNCCCN)c2)ccc1S(=O)(=O)N1CCN(c2cc(C(F)(F)F)cc(Cl)n2)CC1` [Example 027, 3-[(3-Aminopropylamino)methyl]-N-[4-[4-[6-chloro-4-(trifluoromethyl)-2-pyridyl]piperazin-1-yl]sulfonyl-3-methoxy-phenyl]benzamide] yielded an MIC [1] of 4 µg/mL (≈ 6.24 µM) and an MIC [2] of 4 µg/mL (≈ 6.24 µM).

For `NCCCNCc1cccc(C(=O)Nc2ccc(S(=O)(=O)N3CCN(c4cc(C(F)(F)F)cc(Cl)n4)CC3)c(O)c2)c1` [Example 028, 3-[(3-Aminopropylamino)methyl]-N-[4-[4-[6-chloro-4-(trifluoromethyl)-2-pyridyl]piperazin-1-yl]sulfonyl-3-hydroxy-phenyl]benzamide], the MIC [1] was 4.6 µg/mL (≈ 7.34 µM) and the MIC [2] was 9.3 µg/mL (≈ 14.8 µM).

`NCCCNCc1ccc(C(=O)Nc2ccc(S(=O)(=O)N3CCN(c4cc(C(F)(F)F)cc(Cl)n4)CC3)cn2)cc1` [Example 029, 4-[(3-Aminopropylamino)methyl]-N-[5-[4-[6-chloro-4-(trifluoromethyl)-2-pyridyl]piperazin-1-yl]sulfonyl-2-pyridyl]benzamide] gave an MIC [1] of 1.9 µg/mL (≈ 3.1 µM) and an MIC [2] of 3.8 µg/mL (≈ 6.21 µM).

With `COc1cc(S(=O)(=O)N2CCN(c3cc(C(F)(F)F)cc(Cl)n3)CC2)ccc1NC(=O)c1cccc(CNCCCN)c1` [Example 030, 3-[(3-Aminopropylamino)methyl]-N-[4-[4-[6-chloro-4-(trifluoromethyl)-2-pyridyl]piperazin-1-yl]sulfonyl-2-methoxy-phenyl]benzamide] the MIC [1] was 4 µg/mL (≈ 6.24 µM) and the MIC [2] was 8 µg/mL (≈ 12.5 µM).

`NCCCNCc1cccc(C(=O)Nc2ccc(S(=O)(=O)N3CCN(c4cc(C(F)(F)F)cc(Cl)n4)CC3)cc2O)c1` [Example 031, 3-[(3-Aminopropylamino)methyl]-N-[4-[4-[6-chloro-4-(trifluoromethyl)-2-pyridyl]piperazin-1-yl]sulfonyl-2-hydroxy-phenyl]benzamide] showed an MIC [1] of 3.9 µg/mL (≈ 6.22 µM) and an MIC [2] of 3.9 µg/mL (≈ 6.22 µM).

`Cn1cc2c(n1)CN(C(=O)Nc1ccc(S(=O)(=O)N3CCN(c4cc(C(F)(F)F)cc(Cl)n4)CC3)cc1)C2` [Example 032, N-[4-[4-[6-chloro-4-(trifluoromethyl)-2-pyridyl]piperazin-1-yl]sulfonylphenyl]-2-methyl-4,6-dihydropyrrolo[3,4-c]pyrazole-5-carboxamide] showed an MIC [1] of 7.1 µg/mL (≈ 12.5 µM) and an MIC [2] of 7.1 µg/mL (≈ 12.5 µM).

`Cn1ncc2c1CN(C(=O)Nc1ccc(S(=O)(=O)N3CCN(c4cc(C(F)(F)F)cc(Cl)n4)CC3)cc1)C2` [Example 033, N-[4-[4-[6-chloro-4-(trifluoromethyl)-2-pyridyl]piperazin-1-yl]sulfonylphenyl]-1-methyl-4,6-dihydropyrrolo[3,4-c]pyrazole-5-carboxamide] was tested, and the MIC [1] was 3.6 µg/mL (≈ 6.32 µM) and the MIC [2] was 3.6 µg/mL (≈ 6.32 µM).

In the case of `Cn1ncc(C(=O)N2CCc3cc(S(=O)(=O)N4CCN(c5cc(C(F)(F)F)cc(Cl)n5)CC4)ccc32)c1C(=O)O` [Example 035, 4-[5-[4-[6-Chloro-4-(trifluoromethyl)-2-pyridyl]piperazin-1-yl]sulfonylindoline-1-carbonyl]-2-methyl-pyrazole-3-carboxylic acid], the MIC [1] is reported as 3.7 µg/mL (≈ 6.18 µM) and the MIC [2] is reported as 7.5 µg/mL (≈ 12.5 µM).

`O=C(c1cnn(C2CNC2)c1)N1CCc2cc(S(=O)(=O)N3CCN(c4cc(C(F)(F)F)cc(Cl)n4)CC3)ccc21` [Example 036, [1-(Azetidin-3-yl)pyrazol-4-yl]-[5-[4-[6-chloro-4-(trifluoromethyl)-2-pyridyl]piperazin-1-yl]sulfonylindolin-1-yl]methanone] gave an MIC [1] of 3.7 µg/mL (≈ 6.21 µM) and an MIC [2] of 7.4 µg/mL (≈ 12.4 µM).

In the case of `NCCCn1cc(C(=O)N2CCc3cc(S(=O)(=O)N4CCN(c5cc(C(F)(F)F)cc(Cl)n5)CC4)ccc32)cn1` [Example 037, [1-(3-Aminopropyl)pyrazol-4-yl]-[5-[4-[6-chloro-4-(trifluoromethyl)-2-pyridyl]piperazin-1-yl]sulfonylindolin-1-yl]methanone], the MIC [1] is reported as 3.7 µg/mL (≈ 6.19 µM) and the MIC [2] is reported as 7.5 µg/mL (≈ 12.5 µM).

`O=C(c1cnn2c1CNCC2)N1CCc2cc(S(=O)(=O)N3CCN(c4cc(C(F)(F)F)cc(Cl)n4)CC3)ccc21` [Example 038, [5-[4-[6-Chloro-4-(trifluoromethyl)-2-pyridyl]piperazin-1-yl]sulfonylindolin-1-yl]-(4,5,6,7-tetrahydropyrazolo[1,5-a]pyrazin-3-yl)methanone] showed an MIC [1] of 3.7 µg/mL (≈ 6.21 µM) and an MIC [2] of 7.4 µg/mL (≈ 12.4 µM).

Work on `O=C(CN1CCNCC1)Nc1ccc(S(=O)(=O)N2CCN(c3cc(C(F)(F)F)cc(Cl)n3)CC2)cc1` [Example 040, N-[4-[4-[6-chloro-4-(trifluoromethyl)-2-pyridyl]piperazin-1-yl]sulfonylphenyl]-2-piperazin-1-yl-acetamide] yielded an MIC [1] of 2.1 µg/mL (≈ 3.84 µM) and an MIC [2] of 8.3 µg/mL (≈ 15.2 µM).

`O=C(O)c1ccccc1C(=O)N1CCc2cc(S(=O)(=O)N3CCN(c4cc(C(F)(F)F)cc(Cl)n4)CC3)ccc21` [Example 042, 2-[5-[4-[6-Chloro-4-(trifluoromethyl)-2-pyridyl]piperazin-1-yl]sulfonylindoline-1-carbonyl]benzoic acid] gave an MIC [1] of 0.99 µg/mL (≈ 1.66 µM) and an MIC [2] of 2 µg/mL (≈ 3.36 µM).

`Cc1cc(C(F)(F)F)nc(N2CCN(S(=O)(=O)c3ccc(NC(=O)c4cnc5c(c4)CNC5)cc3)CC2)n1` [Example 044, N-[4-[4-[4-methyl-6-(trifluoromethyl)pyrimidin-2-yl]piperazin-1-yl]sulfonylphenyl]-6,7-dihydro-5H-pyrrolo[3,4-b]pyridine-3-carboxamide] gave an MIC [1] of 0.91 µg/mL (≈ 1.66 µM) and an MIC [2] of 1.8 µg/mL (≈ 3.29 µM).

Molecule `Cc1cc(C(F)(F)F)cc(N2CCN(S(=O)(=O)c3ccc(NC(=O)c4cnc5c(c4)CNC5)cc3)CC2)n1` [Example 045, N-[4-[4-[6-methyl-4-(trifluoromethyl)-2-pyridyl]piperazin-1-yl]sulfonylphenyl]-6,7-dihydro-5H-pyrrolo[3,4-b]pyridine-3-carboxamide] has an MIC [1] of 0.91 µg/mL (≈ 1.66 µM) and an MIC [2] of 3.6 µg/mL (≈ 6.59 µM).

For `O=C(Nc1ccc(S(=O)(=O)N2CCN(c3cc(C(F)(F)F)cc(Cl)n3)CC2)cc1)c1ccc2c(c1)CNC2` [Example 046, N-[4-[4-[6-chloro-4-(trifluoromethyl)-2-pyridyl]piperazin-1-yl]sulfonylphenyl]isoindoline-5-carboxamide], the MIC [1] was 0.47 µg/mL (≈ 0.83 µM) and the MIC [2] was 0.47 µg/mL (≈ 0.83 µM).

For `O=C(Nc1ccc(S(=O)(=O)N2CCN(c3cc(C(F)(F)F)cc(Cl)n3)CC2)cc1)c1cccc(N2CC3CC2CN3)c1` (stereo not drawn) [Example 047, N-[4-[4-[6-chloro-4-(trifluoromethyl)-2-pyridyl]piperazin-1-yl]sulfonylphenyl]-3-(2,5-diazabicyclo[2.2.1]heptan-2-yl)benzamide], the MIC [1] was 1.1 µg/mL (≈ 1.77 µM) and the MIC [2] was 2.3 µg/mL (≈ 3.7 µM).

With `NCCOc1cccc(C(=O)Nc2ccc(S(=O)(=O)N3CCN(c4cc(C(F)(F)F)cc(Cl)n4)CC3)cc2)c1` [Example 048, 3-(2-Aminoethoxy)-N-[4-[4-[6-chloro-4-(trifluoromethyl)-2-pyridyl]piperazin-1-yl]sulfonylphenyl]benzamide] the MIC [1] was 0.48 µg/mL (≈ 0.822 µM) and the MIC [2] was 0.97 µg/mL (≈ 1.66 µM).

In the case of `O=C(Nc1ccc(S(=O)(=O)N2CCN(c3cc(C(F)(F)F)cc(Cl)n3)CC2)cc1)c1cccc(OCC2CNC2)c1` [Example 050, 3-(Azetidin-3-ylmethoxy)-N-[4-[4-[6-chloro-4-(trifluoromethyl)-2-pyridyl]piperazin-1-yl]sulfonylphenyl]benzamide], the MIC [1] is reported as 1 µg/mL (≈ 1.64 µM) and the MIC [2] is reported as 1 µg/mL (≈ 1.64 µM).

For `N[C@@H]1CCN(c2cccc(C(=O)Nc3ccc(S(=O)(=O)N4CCN(c5cc(C(F)(F)F)cc(Cl)n5)CC4)cc3)c2)C1` [Example 051, N-[4-[4-[6-chloro-4-(trifluoromethyl)-2-pyridyl]piperazin-1-yl]sulfonylphenyl]-3-[(3R)-3-aminopyrrolidin-1-yl]benzamide], the MIC [1] was 0.56 µg/mL (≈ 0.919 µM) and the MIC [2] was 1.1 µg/mL (≈ 1.81 µM).

`NCCc1cccc(C(=O)Nc2ccc(S(=O)(=O)N3CCN(c4cc(C(F)(F)F)cc(Cl)n4)CC3)cc2)c1` [Example 053, 3-(2-Aminoethyl)-N-[4-[4-[6-chloro-4-(trifluoromethyl)-2-pyridyl]piperazin-1-yl]sulfonylphenyl]benzamide] was tested, and the MIC [1] was 0.44 µg/mL (≈ 0.775 µM) and the MIC [2] was 0.89 µg/mL (≈ 1.57 µM).
